Like-named read-outs stand apart in the source and are kept apart here.
Experiments:
[1] = Brain PET imaging with [18F]-FIPIT in a rhesus monkey; assay type: in vivo
Description: (§1) In vivo distribution of a compound of the invention, [^18 F]-2β-carbo-2'-fluoroisopropoxy-3β-(4-iodophenyl)tropane (FIPIT) 8 (X=4-iodophenyl; Y=1'fluoro-isopropoxy) was measured, as well as brain PET imaging to determine suitability of the compound as a label. Also, in vitro binding studies were conducted, measuring the ability of FIPIT to displace [^3 H]WIN 35,428 (III) in a rat striatal homogenate preparation. These studies provided a calculated binding constant for FIPIT 8 with dopamine transporter of 1.13 nM. […] Region of interest measurements determined striatal to cerebellum ratios to be 3.0 at 190 min post administration. In the in vivo distribution studies, the distribution of radioactivity was expressed as percent dose per gram in tissues of unfasted male Sprague Dawley rats at 2 min, 30 min, 60 min and 120 min after intravenous administration of [^18 F] FIPIT 8. The results are shown in Table I. The initial level of accumulation of radioactivity in the striatum, a region rich in dopamine transporters, after injection of [^18 F] FIPIT 8 was high, 0.84% of injected dose/gram at 2 min, and decreased slowly to 0.50% of injected dose/gram at 120 min. […] However, the amount of radioactivity in the cerebellum and cortex at 120 min decreased to only 0.14% dose/gram and 0.26% dose/gram respectively resulting in a striatum to cerebellum ratio of 3.71 and a striatum to cortex ratio of 2.0.

[2] = In vivo tissue distribution of radioactivity after intravenous administration; design: species or system Sprague Dawley rats; settings: rat, i.v.; for tissue uptake at 2 min / tissue uptake at 0.5 h / tissue uptake at 1 h / tissue uptake at 2 h: iv
Description: as §1

dopamine transporter = biological target: T1, dopamine transporter (Rattus norvegicus, UniProt P23977); test: In vitro binding: displacement of [3H]WIN 35,428 in rat striatal homogenate; settings: displacement of [3H]WIN 35,428, rat striatal homogenate; read-out: calculated binding constant with dopamine transporter
T1 construct: in a rat striatal homogenate preparation; from tissue; host or cells: rat striatum (homogenate)
T1 sequence (P23977 whole entry): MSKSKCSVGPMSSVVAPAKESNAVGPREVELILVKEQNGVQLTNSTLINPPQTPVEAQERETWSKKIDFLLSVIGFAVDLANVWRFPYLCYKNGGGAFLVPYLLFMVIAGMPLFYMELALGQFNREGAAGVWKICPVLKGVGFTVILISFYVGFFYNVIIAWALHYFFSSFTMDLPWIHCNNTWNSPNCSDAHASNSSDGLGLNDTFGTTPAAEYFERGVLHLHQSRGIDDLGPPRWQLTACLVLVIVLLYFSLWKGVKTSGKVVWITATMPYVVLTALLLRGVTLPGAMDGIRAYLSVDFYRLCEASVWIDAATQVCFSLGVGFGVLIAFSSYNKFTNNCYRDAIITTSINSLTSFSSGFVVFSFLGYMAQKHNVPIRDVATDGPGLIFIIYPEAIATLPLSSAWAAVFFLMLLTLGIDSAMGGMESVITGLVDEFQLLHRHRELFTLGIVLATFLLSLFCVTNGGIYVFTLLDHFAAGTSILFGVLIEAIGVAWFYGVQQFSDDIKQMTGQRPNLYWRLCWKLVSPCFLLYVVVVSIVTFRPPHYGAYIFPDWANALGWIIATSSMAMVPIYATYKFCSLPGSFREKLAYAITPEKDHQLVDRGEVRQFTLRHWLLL
Description: as §1

Question: With `CC(C[18F])OC(=O)[C@H]1[C@@H](c2ccc(I)cc2)C[C@@H]2CC[C@H]1N2C` (stereo partly drawn) [[^18 F] FIPIT 8, Fluorine-18 labeled2β-carbo-1'-fluoroisopropoxy-3β-(4-iodophenyl)tropane] as the compound, how does the “brain region of highest uptake (basal ganglia/striatum)” value [1] read?
Answer: region of highest uptake in the brain

Question: And the “retention in basal ganglia (striatum)” value ([1]; 190 min following injection)?
Answer: prolonged retention with clear visualization at 190 min

Question: What about the “striatal to cerebellum ratio (region of interest measurements)” value ([1]; 190 min post administration) of the same compound?
Answer: 3.0

Question: What about the tissue uptake at 2 min ([2]; blood, 2 min, read-out: Blood, Mean % Injected Dose/Gram) of the same compound?
Answer: 0.14 %ID/g

Question: And the tissue uptake at 0.5 h ([2]; blood, 30 min, read-out: Blood, Mean % Injected Dose/Gram)?
Answer: 0.03 %ID/g

Question: What about the tissue uptake at 1 h ([2]; blood, 60 min, read-out: Blood, Mean % Injected Dose/Gram) of the same compound?
Answer: 0.03 %ID/g

Question: And the tissue uptake at 2 h ([2]; blood, 120 min, read-out: Blood, Mean % Injected Dose/Gram)?
Answer: 0.04 %ID/g

Question: And the tissue uptake at 2 min ([2]; bone, 2 min, read-out: Bone, Mean % Injected Dose/Gram)?
Answer: 0.28 %ID/g

Question: What about the tissue uptake at 0.5 h ([2]; bone, 30 min, read-out: Bone, Mean % Injected Dose/Gram) of the same compound?
Answer: 0.21 %ID/g

Question: And the tissue uptake at 1 h ([2]; bone, 60 min, read-out: Bone, Mean % Injected Dose/Gram)?
Answer: 0.17 %ID/g

Question: What about the tissue uptake at 2 h ([2]; bone, 120 min, read-out: Bone, Mean % Injected Dose/Gram) of the same compound?
Answer: 0.25 %ID/g

Question: And the tissue uptake at 2 min ([2]; brain, 2 min, read-out: Brain (B), Mean % Injected Dose/Gram)?
Answer: 0.83 %ID/g

Question: And the tissue uptake at 0.5 h ([2]; brain, 30 min, read-out: Brain (B), Mean % Injected Dose/Gram)?
Answer: 0.53 %ID/g

Question: What about the tissue uptake at 1 h ([2]; brain, 60 min, read-out: Brain (B), Mean % Injected Dose/Gram) of the same compound?
Answer: 0.31 %ID/g

Question: And the tissue uptake at 2 h ([2]; brain, 120 min, read-out: Brain (B), Mean % Injected Dose/Gram)?
Answer: 0.28 %ID/g

Question: What about the tissue uptake at 2 min ([2]; cerebellum, 2 min, read-out: Cerebell (C), Mean % Injected Dose/Gram) of the same compound?
Answer: 0.76 %ID/g

Question: What about the tissue uptake at 0.5 h ([2]; cerebellum, 30 min, read-out: Cerebell (C), Mean % Injected Dose/Gram) of the same compound?
Answer: 0.3 %ID/g

Question: What about the tissue uptake at 1 h ([2]; cerebellum, 60 min, read-out: Cerebell (C), Mean % Injected Dose/Gram) of the same compound?
Answer: 0.16 %ID/g

Question: And the tissue uptake at 2 h ([2]; cerebellum, 120 min, read-out: Cerebell (C), Mean % Injected Dose/Gram)?
Answer: 0.14 %ID/g

Question: And the tissue uptake at 2 min ([2]; cortex, 2 min, read-out: Cortex (Cx), Mean % Injected Dose/Gram)?
Answer: 0.98 %ID/g

Question: And the tissue uptake at 0.5 h ([2]; cortex, 30 min, read-out: Cortex (Cx), Mean % Injected Dose/Gram)?
Answer: 0.53 %ID/g

Question: What about the tissue uptake at 1 h ([2]; cortex, 60 min, read-out: Cortex (Cx), Mean % Injected Dose/Gram) of the same compound?
Answer: 0.28 %ID/g

Question: What about the tissue uptake at 2 h ([2]; cortex, 120 min, read-out: Cortex (Cx), Mean % Injected Dose/Gram) of the same compound?
Answer: 0.26 %ID/g

Question: And the tissue uptake at 2 min ([2]; heart, 2 min, read-out: Heart, Mean % Injected Dose/Gram)?
Answer: 1.7 %ID/g

Question: What about the tissue uptake at 0.5 h ([2]; heart, 30 min, read-out: Heart, Mean % Injected Dose/Gram) of the same compound?
Answer: 0.14 %ID/g

Question: And the tissue uptake at 1 h ([2]; heart, 60 min, read-out: Heart, Mean % Injected Dose/Gram)?
Answer: 0.1 %ID/g

Question: What about the tissue uptake at 2 h ([2]; heart, 120 min, read-out: Heart, Mean % Injected Dose/Gram) of the same compound?
Answer: 0.12 %ID/g

Question: And the tissue uptake at 2 min ([2]; kidney, 2 min, read-out: Kidney, Mean % Injected Dose/Gram)?
Answer: 2.61 %ID/g

Question: What about the tissue uptake at 0.5 h ([2]; kidney, 30 min, read-out: Kidney, Mean % Injected Dose/Gram) of the same compound?
Answer: 0.85 %ID/g

Question: What about the tissue uptake at 1 h ([2]; kidney, 60 min, read-out: Kidney, Mean % Injected Dose/Gram) of the same compound?
Answer: 0.44 %ID/g

Question: What about the tissue uptake at 2 h ([2]; kidney, 120 min, read-out: Kidney, Mean % Injected Dose/Gram) of the same compound?
Answer: 0.3 %ID/g

Question: What about the tissue uptake at 2 min ([2]; liver, 2 min, read-out: Liver, Mean % Injected Dose/Gram) of the same compound?
Answer: 1.5 %ID/g

Question: And the tissue uptake at 0.5 h ([2]; liver, 30 min, read-out: Liver, Mean % Injected Dose/Gram)?
Answer: 3.89 %ID/g

Question: And the tissue uptake at 1 h ([2]; liver, 60 min, read-out: Liver, Mean % Injected Dose/Gram)?
Answer: 5.2 %ID/g

Question: And the tissue uptake at 2 h ([2]; liver, 120 min, read-out: Liver, Mean % Injected Dose/Gram)?
Answer: 4.46 %ID/g

Question: What about the tissue uptake at 2 min ([2]; lung, 2 min, read-out: Lung, Mean % Injected Dose/Gram) of the same compound?
Answer: 6.21 %ID/g

Question: And the tissue uptake at 0.5 h ([2]; lung, 30 min, read-out: Lung, Mean % Injected Dose/Gram)?
Answer: 0.61 %ID/g

Question: What about the tissue uptake at 1 h ([2]; lung, 60 min, read-out: Lung, Mean % Injected Dose/Gram) of the same compound?
Answer: 0.4 %ID/g

Question: And the tissue uptake at 2 h ([2]; lung, 120 min, read-out: Lung, Mean % Injected Dose/Gram)?
Answer: 0.46 %ID/g

Question: And the tissue uptake at 2 min ([2]; muscle, 2 min, read-out: Muscle, Mean % Injected Dose/Gram)?
Answer: 0.12 %ID/g

Question: And the tissue uptake at 0.5 h ([2]; muscle, 30 min, read-out: Muscle, Mean % Injected Dose/Gram)?
Answer: 0.13 %ID/g

Question: And the tissue uptake at 1 h ([2]; muscle, 60 min, read-out: Muscle, Mean % Injected Dose/Gram)?
Answer: 0.04 %ID/g

Question: And the tissue uptake at 2 h ([2]; muscle, 120 min, read-out: Muscle, Mean % Injected Dose/Gram)?
Answer: 0.08 %ID/g

Question: And the “washout from brain regions other than striatum” value [2]?
Answer: rapid washout in all other brain regions

Question: What about the “Bone, Mean % Injected Dose/Gram” value ([2]; 2 min) of the same compound?
Answer: 0.28 % Injected Dose/Gram

Question: And the “Cerebell (C), Mean % Injected Dose/Gram” value ([2]; 2 min)?
Answer: 0.76 % Injected Dose/Gram

Question: What about the “Cortex (Cx), Mean % Injected Dose/Gram” value ([2]; 2 min) of the same compound?
Answer: 0.98 % Injected Dose/Gram

Question: And the “St/C (striatum to cerebellum ratio)” value ([2]; 2 min)?
Answer: 1.12

Question: And the “St/Cx (striatum to cortex ratio)” value ([2]; 2 min)?
Answer: 0.86

Question: And the “Striatum (St), Mean % Injected Dose/Gram” value ([2]; 2 min)?
Answer: 0.84 % Injected Dose/Gram

Question: What about the “in vivo defluorination (from bone radioactivity)” value ([2]; 2 min to 120 min) of the same compound?
Answer: stability of the 2β-fluoroisopropyl group to significant in vivo defluorination

Question: What about the “St/C (striatum to cerebellum ratio)” value ([2]; 30 min) of the same compound?
Answer: 2.42

Question: And the “St/Cx (striatum to cortex ratio)” value ([2]; 30 min)?
Answer: 1.38

Question: And the “St/C (striatum to cerebellum ratio)” value ([2]; 60 min)?
Answer: 3.63

Question: What about the “St/Cx (striatum to cortex ratio)” value ([2]; 60 min) of the same compound?
Answer: 2.13

Question: And the “Bone, Mean % Injected Dose/Gram” value ([2]; 120 min)?
Answer: 0.25 % Injected Dose/Gram

Question: And the “Cerebell (C), Mean % Injected Dose/Gram” value ([2]; 120 min)?
Answer: 0.14 % Injected Dose/Gram

Question: And the “Cortex (Cx), Mean % Injected Dose/Gram” value ([2]; 120 min)?
Answer: 0.26 % Injected Dose/Gram

Question: And the “St/C (striatum to cerebellum ratio)” value ([2]; 120 min)?
Answer: 3.71

Question: And the “St/Cx (striatum to cortex ratio)” value ([2]; 120 min)?
Answer: 2.0

Question: What about the “Striatum (St), Mean % Injected Dose/Gram” value ([2]; 120 min) of the same compound?
Answer: 0.50 % Injected Dose/Gram

Question: What about the “St/Cx (striatum to cortex ratio)” value ([2]; 120 min, listed as [^18 F] FIPIT (8)) of the same compound?
Answer: 2.00

Question: And the tissue uptake at 2 min ([2]; spleen, 2 min, read-out: Spleen, Mean % Injected Dose/Gram)?
Answer: 1.58 %ID/g

Question: And the tissue uptake at 0.5 h ([2]; spleen, 30 min, read-out: Spleen, Mean % Injected Dose/Gram)?
Answer: 0.64 %ID/g

Question: And the tissue uptake at 1 h ([2]; spleen, 60 min, read-out: Spleen, Mean % Injected Dose/Gram)?
Answer: 0.4 %ID/g

Question: And the tissue uptake at 2 h ([2]; spleen, 120 min, read-out: Spleen, Mean % Injected Dose/Gram)?
Answer: 0.38 %ID/g

Question: What about the tissue uptake at 2 min ([2]; striatum, 2 min, read-out: Striatum (St), Mean % Injected Dose/Gram) of the same compound?
Answer: 0.84 %ID/g

Question: And the tissue uptake at 0.5 h ([2]; striatum, 30 min, read-out: Striatum (St), Mean % Injected Dose/Gram)?
Answer: 0.73 %ID/g

Question: What about the tissue uptake at 1 h ([2]; striatum, 60 min, read-out: Striatum (St), Mean % Injected Dose/Gram) of the same compound?
Answer: 0.58 %ID/g

Question: And the tissue uptake at 2 h ([2]; striatum, 120 min, read-out: Striatum (St), Mean % Injected Dose/Gram)?
Answer: 0.5 %ID/g

Question: What about the tissue uptake at 2 min ([2]; testis, 2 min, read-out: Testis, Mean % Injected Dose/Gram) of the same compound?
Answer: 0.14 %ID/g

Question: What about the tissue uptake at 0.5 h ([2]; testis, 30 min, read-out: Testis, Mean % Injected Dose/Gram) of the same compound?
Answer: 0.68 %ID/g

Question: And the tissue uptake at 1 h ([2]; testis, 60 min, read-out: Testis, Mean % Injected Dose/Gram)?
Answer: 0.17 %ID/g

Question: And the tissue uptake at 2 h ([2]; testis, 120 min, read-out: Testis, Mean % Injected Dose/Gram)?
Answer: 0.19 %ID/g

Question: For `CC(CF)OC(=O)[C@H]1[C@@H](c2ccc(I)cc2)C[C@@H]2CC[C@H]1N2C` (stereo partly drawn) [FIPIT 8], which Ki (dopamine transporter) is on record?
Answer: 1.13 nM

— patent US5888475A, “Labeled cocaine analogs” (Emory University, priority 1997, dated 1999)
